The test system of this data set is subjects with RRMS. Put plainly: BRAVO phase III trial: laquinimod vs placebo and Interferon β-1a (Avonex) reference arm. It is filed as in vivo, human. As for the experimental part:
A multinational, multicenter, randomized, parallel-group, clinical trial is performed in subjects with RRMS (“BRAVO”).
Interferon β-1a (Avonex®) 30 mcg intramuscular injection once weekly (400 subjects).
During the study, the following assessments are performed (regardless of the treatment assignment) at the specified time points: • 1. Vital signs (temperature, pulse, blood pressure) are measured at each study visit. • 2. A physical examination is performed at months −1 (screening), (baseline) 1, 3, 6, 12, 18 and 24 (termination/early discontinuation). • 3. The following safety clinical laboratory tests are performed: • a. Hematology and Complete blood count (CBC) with differential—at all scheduled visits. A reticulocyte count is added to the CBC at months 0 (baseline) and 24 (termination/early discontinuation) as well as in occasions of significant decrease in hemoglobin. • b. Serum chemistry (including electrolytes, liver enzymes, direct and total bilirubin, CPK and pancreatic amylase), and urinalysis—at all scheduled visits. • c. Serum TSH, T3 and Free T4 are measured at months 0 (baseline), 6, 12, 18 and 24 (termination/early discontinuation). • d. A rapid urine β-hCG test is performed in women of child-bearing potential at baseline (month 0; all subjects) and at each scheduled study visit thereafter (at site; only subjects assigned to oral treatment). • e. β-hCG in women of child-bearing potential are performed at each study visit. • f. Starting after visit Month 3 a rapid urine β-hCG test is performed in women of child-bearing potential (only those assigned to oral treatment) every 28 (±2) days. The subject is contacted by telephone with 72 hours after the test is scheduled to be performed and asked specific questions regarding the test. In case of suspected pregnancy (positive urine β-hCG test result), the caller makes sure that the study drug has been discontinued and the subject is instructed to arrive to the site as soon as possible with all study drugs. • 4. Markers of inflammation (serum conventional C-reactive protein and fibrinogen) are measured at all scheduled visits. • 5. […] These samples are collected at months 0, 12 and 24. • 6. […] In case of suspected thrombotic event, the subject is requested to arrive at the site immediately for further evaluation. […] ECG is performed at months −1 (screening; additional recording, up to 30 minutes apart are performed if QTc is >450 msec), 0 (baseline; three recordings, 15 minute apart), 1, 2, 3, 6, 12, 18 and 24 (termination/early discontinuation). • 8. Chest X-ray is performed at month −1 (screening) (if not performed within 6 months prior to screening visit). • 9. Adverse Events (AEs) are monitored throughout the study and recorded. • 10. Concomitant medications are monitored throughout the study. • 11. Neurological evaluations, including Neurostatus [Functional Systems (FS), Expanded Disability Status Scale (EDSS; Converted scale), Ambulation Index (AI)] and Timed-25 foot walk test are performed at months −1 (screening), 0 (baseline) and every 3 months thereafter, until termination/early discontinuation. (At screening visit, the Timed-25 foot walk test is performed 3 times, for practicing purposes, as a part of the MSFC). • 12. MS Functional Composite (MSFC) is assessed at months −1 (screening) (three practices for training purposes only), 0 (baseline), 6, 12, 18 and 24 (termination/early discontinuation). • 13. The general health status is assessed by the EuroQoL (EQ5D) questionnaire at months 0 (baseline) and 24 (termination/early discontinuation). • 14. The general health status and quality of life parameters are assessed by the Short-Form general health survey (SF-36) subject-reported questionnaire at month 0 (baseline) and every 6 months thereafter until termination/early discontinuation, inclusive. • 15. Subject-reported fatigue is assessed by the Modified Fatigue Impact Scale (MFIS) at months 0 (baseline), 2, 6, 12, 18 and 24 (termination/early discontinuation). • 16. […]

The mark [1] stands for this setting: 0.6 mg daily oral compared to weekly 30 mcg Interferon β-1a (Avonex).

`CCN(C(=O)c1c(O)c2c(Cl)cccc2n(C)c1=O)c1ccccc1` [Laquinimod, laquinimod]: where the note is “0.6 mg daily oral”, the “Accumulation of physical disability (MSFC score, time to confirmed progression of EDSS)” value is reported as “reduces the accumulation of physical disability”; the “Brain atrophy (percent brain volume change from baseline to end of treatment)” value is given as “reduces brain atrophy”; the “Fatigue (MFIS)” value is given as “reduces the fatigue”; the “General health status (SF-36)” value was “improves the general health status”. Where the note is “0.6 mg daily oral”, the “Prevention or delay of relapses” value is reported as “prevents or delays relapses”, the “Quality of life (EuroQoL EQ5D)” value is listed as “improves the quality of life” and the “Severe relapses (requiring hospitalization or intravenous steroid treatment)” value is given as “reduces the rate of severe relapses or the severity of relapses”. Under setting [1], the Adverse effects entry is given as “fewer adverse effects, less severe adverse effects”; the “Safety and tolerability profile” value was “favorable safety and tolerability profile”. The “Number of confirmed relapses” value (0.6 mg daily oral, vs placebo and Avonex arm) is recorded as “reduces the number of confirmed relapses”.

For the origin of these results see patent US20120142730A1 (priority 2010, published 2012).
